# Data reported in patent publication US20240358692A1, “TREATMENT OF SCLERODERMA” (Aisa Pharma, Inc., priority 2023, published 2024).
# Test system: participants with SSc-RP
# Assay: Average duration of weekly RP attacks (minutes), patient diary
# Format: in vivo, human
# From the text: The absolute change in average duration of weekly RP attacks from baseline to the end of each dosing period was and will be a secondary outcome variable. The sponsor-developed participant-informed diary was and will be used to record data. Average duration of weekly RP attacks is defined as the total duration of RP attacks divided by total number of RP attacks within the last 7 days of each dosing period. Total duration of RP attacks during the last 7 days of screening period divided by the total number of RP attacks will be used as baseline for the analysis of all periods. The variable will be calculated similar to frequency data as before.
# [1] = Cilnidipine 20 mg, Excluding Outliers, by Baseline RCS, first RCS subgroup of table (not named), ITT Population - Part A
# [2] = Cilnidipine 20 mg, by Baseline RCS, first RCS subgroup of table (not named), ITT Population - Part A
# [3] = Cilnidipine 20 mg, by Baseline RCS, first subgroup of table, ITT Population - Part A
# [4] = Pooled Cilnidipine 10 mg and Cilnidipine 10 mg + Tadalafil 5 mg, Excluding Outliers, ITT Population - Part A
# [5] = Pooled Cilnidipine 10 mg and Cilnidipine 10 mg + Tadalafil 5 mg, ITT Population - Part A
# [6] = Pooled Cilnidipine 10 mg and Cilnidipine 10 mg + Tadalafil 5 mg, by Baseline RCS, first subgroup of table, ITT Population - Part A
# [7] = Pooled Cilnidipine 10 mg and Cilnidipine 10 mg + Tadalafil 5 mg, by Baseline RCS, second subgroup of table, ITT Population - Part A
# [8] = Pooled Cilnidipine 20 mg and Cilnidipine 20 mg + Tadalafil 5 mg, Excluding Outliers, ITT Population - Part A
# [9] = Pooled Cilnidipine 20 mg and Cilnidipine 20 mg + Tadalafil 5 mg, Excluding Outliers, by Baseline RCS, second RCS subgroup of table (not named), ITT Population - Part A
# [10] = Pooled Cilnidipine 20 mg and Cilnidipine 20 mg + Tadalafil 5 mg, by Baseline RCS, first subgroup of table, ITT Population - Part A
# [11] = Pooled Cilnidipine 20 mg and Cilnidipine 20 mg + Tadalafil 5 mg, by Baseline RCS, second RCS subgroup of table (not named), ITT Population - Part A
# [12] = Pooled Cilnidipine 20 mg and Cilnidipine 20 mg + Tadalafil 5 mg, by Baseline RCS, second subgroup of table, ITT Population - Part A
# [13] = Pooled Cilnidipine 20 mg and Cilnidipine 20 mg + Tadalafil 5 mg, last 7 days of dosing period, ITT Part A
# [14] = Pooled Cilnidipine, Excluding Outliers, ITT Population - Part A
# [15] = Pooled Cilnidipine, Excluding Outliers, by Baseline RCS, first RCS subgroup of table (not named), ITT Population - Part A
# [16] = Pooled Cilnidipine, ITT Population - Part A
# [17] = Pooled Cilnidipine, ITT Population - Part A, last 7 days of dosing period
# [18] = Pooled Cilnidipine, by Baseline RCS, first RCS subgroup of table (not named), ITT Population - Part A
# [19] = Pooled Cilnidipine, by Baseline RCS, first subgroup of table, ITT Population - Part A
# [20] = Pooled Cilnidipine, excluding outliers, 1st baseline RCS subgroup, ITT Part A
smiles,measurement,setting,value
COCCOC(=O)C1=C(C)NC(C)=C(C(=O)OC/C=C/c2ccccc2)C1c1cccc([N+](=O)[O-])c1 (stereo not shown) [Cilnidipine],"Percent Change from Baseline in average duration of weekly symptomatic RP attacks, Median","Cilnidipine 20 mg, Excluding Outliers, ITT Population - Part A",−31.05%
same,"Average Duration of weekly symptomatic RP attacks, Mean",[1],16.73 min
same,"Average Duration of weekly symptomatic RP attacks, Median",[1],16.73 min
same,"Change from Baseline in average duration of weekly symptomatic RP attacks, Mean",[1],-3.13 min
same,"Change from Baseline in average duration of weekly symptomatic RP attacks, Median",[1],-3.13 min
same,"Percent Change from Baseline in average duration of weekly symptomatic RP attacks, Mean",[1],−31.05%
same,"Percent Change from Baseline in average duration of weekly symptomatic RP attacks, Median",[1],−31.05%
same,"Average Duration of Weekly Symptomatic RP Attacks Change from Baseline, Mean","Cilnidipine 20 mg, ITT Part A",-3.13 min
same,"Average Duration of Weekly Symptomatic RP Attacks Change from Baseline, Median","Cilnidipine 20 mg, ITT Part A",-3.13 min
same,"Average Duration of Weekly Symptomatic RP Attacks Percent Change from Baseline, Mean","Cilnidipine 20 mg, ITT Part A",−31.05%
same,"Average Duration of Weekly Symptomatic RP Attacks Percent Change from Baseline, Median","Cilnidipine 20 mg, ITT Part A",−31.05%
same,"Average Duration of weekly symptomatic RP attacks, Mean",[2],16.73 min
same,"Average Duration of weekly symptomatic RP attacks, Median",[2],16.73 min
same,"Change from Baseline in average duration of weekly symptomatic RP attacks, Mean",[2],-3.13 min
same,"Change from Baseline in average duration of weekly symptomatic RP attacks, Median",[2],-3.13 min
same,"Percent Change from Baseline in average duration of weekly symptomatic RP attacks, Mean",[2],−31.05%
same,"Percent Change from Baseline in average duration of weekly symptomatic RP attacks, Median",[2],−31.05%
same,"Average Duration of Weekly RP Attacks (All Attacks), Mean",[3],16.73 min
same,"Average Duration of Weekly RP Attacks (All Attacks), Median",[3],16.73 min
same,"Average Duration of weekly symptomatic RP attacks, Median",[4],31.64 min
same,"Change from Baseline in average duration of weekly symptomatic RP attacks, Mean",[4],-12.11 min
same,"Change from Baseline in average duration of weekly symptomatic RP attacks, Median",[4],-16.74 min
same,"Percent Change from Baseline in average duration of weekly symptomatic RP attacks, Mean",[4],−22.40%
same,"Percent Change from Baseline in average duration of weekly symptomatic RP attacks, Median",[4],−33.84%
same,"Average Duration of Weekly Symptomatic RP Attacks Change from Baseline, Median","Pooled Cilnidipine 10 mg and Cilnidipine 10 mg + Tadalafil 5 mg, ITT Part A",-16.74 min
same,"Average Duration of Weekly RP Attacks (All Attacks), Change from Baseline, Median",[5],-8.48 min
same,"Average Duration of Weekly RP Attacks (All Attacks), Percent Change from Baseline, Median",[5],−21.20%
same,"Percent Change from Baseline in average duration of weekly symptomatic RP attacks, Mean","Pooled Cilnidipine 10 mg and Cilnidipine 10 mg + Tadalafil 5 mg, by Baseline RCS, first RCS subgroup of table (not named), ITT Population - Part A",−16.67%
same,"Average Duration of Weekly RP Attacks (All Attacks), Change from Baseline, Mean",[6],-4.13 min
same,"Average Duration of Weekly RP Attacks (All Attacks), Change from Baseline, Median",[6],-4.13 min
same,"Average Duration of Weekly RP Attacks (All Attacks), Mean",[6],24.76 min
same,"Average Duration of Weekly RP Attacks (All Attacks), Median",[6],24.76 min
same,"Average Duration of Weekly RP Attacks (All Attacks), Percent Change from Baseline, Mean",[6],−9.97%
same,"Average Duration of Weekly RP Attacks (All Attacks), Percent Change from Baseline, Median",[6],−9.97%
same,"Average Duration of Weekly RP Attacks (All Attacks), Change from Baseline, Mean",[7],-20.38 min
same,"Average Duration of Weekly RP Attacks (All Attacks), Change from Baseline, Median",[7],-20.38 min
same,"Average Duration of Weekly RP Attacks (All Attacks), Mean",[7],34.17 min
same,"Average Duration of Weekly RP Attacks (All Attacks), Median",[7],34.17 min
same,"Average Duration of Weekly RP Attacks (All Attacks), Percent Change from Baseline, Mean",[7],−37.36%
same,"Average Duration of Weekly RP Attacks (All Attacks), Percent Change from Baseline, Median",[7],−37.36%
same,"Average Duration of weekly symptomatic RP attacks, Mean","Pooled Cilnidipine 10 mg and Cilnidipine 10 mg + Tadalafil 5 mg, last 7 days of dosing period, ITT Part A",29.46 min
same,"Change from Baseline in average duration of weekly symptomatic RP attacks, Mean",[8],-7.51 min
same,"Change from Baseline in average duration of weekly symptomatic RP attacks, Median",[8],-3.55 min
same,"Percent Change from Baseline in average duration of weekly symptomatic RP attacks, Mean",[8],−16.40%
same,"Percent Change from Baseline in average duration of weekly symptomatic RP attacks, Median",[8],−7.30%
same,"Change from Baseline in average duration of weekly symptomatic RP attacks, Mean",[9],-27.00 min
same,"Change from Baseline in average duration of weekly symptomatic RP attacks, Median",[9],-27.00 min
same,"Percent Change from Baseline in average duration of weekly symptomatic RP attacks, Mean",[9],−30.00%
same,"Percent Change from Baseline in average duration of weekly symptomatic RP attacks, Median",[9],−30.00%
same,"Average Duration of Weekly RP Attacks (All Attacks), Change from Baseline, Mean",[10],0.00 min
same,"Average Duration of Weekly RP Attacks (All Attacks), Change from Baseline, Median",[10],2.16 min
same,"Average Duration of Weekly RP Attacks (All Attacks), Mean",[10],15.91 min
same,"Average Duration of Weekly RP Attacks (All Attacks), Median",[10],14.27 min
same,"Average Duration of Weekly RP Attacks (All Attacks), Percent Change from Baseline, Mean",[10],−10.70%
same,"Average Duration of Weekly RP Attacks (All Attacks), Percent Change from Baseline, Median",[10],17.86%
same,"Change from Baseline in average duration of weekly symptomatic RP attacks, Mean",[11],-27.00 min
same,"Change from Baseline in average duration of weekly symptomatic RP attacks, Median",[11],-27.00 min
same,"Percent Change from Baseline in average duration of weekly symptomatic RP attacks, Mean",[11],−30.00%
same,"Percent Change from Baseline in average duration of weekly symptomatic RP attacks, Median",[11],−30.00%
same,"Average Duration of Weekly RP Attacks (All Attacks), Change from Baseline, Mean",[12],-19.09 min
same,"Average Duration of Weekly RP Attacks (All Attacks), Change from Baseline, Median",[12],-19.09 min
same,"Average Duration of Weekly RP Attacks (All Attacks), Mean",[12],62.73 min
same,"Average Duration of Weekly RP Attacks (All Attacks), Median",[12],62.73 min
same,"Average Duration of Weekly RP Attacks (All Attacks), Percent Change from Baseline, Mean",[12],−23.33%
same,"Average Duration of Weekly RP Attacks (All Attacks), Percent Change from Baseline, Median",[12],−23.33%
same,"Average Duration of weekly symptomatic RP attacks, Mean",[13],27.98 min
same,"Average Duration of weekly symptomatic RP attacks, Median",[13],22.96 min
same,Duration (change),Pooled Cilnidipine (n = 7),20%
same,"Average Duration of weekly symptomatic RP attacks, Mean",[14],21.70 min
same,"Average Duration of weekly symptomatic RP attacks, Median",[14],30.45 min
same,"Percent Change from Baseline in average duration of weekly symptomatic RP attacks, Median",[14],−34.60%
same,"Average Duration of weekly symptomatic RP attacks, Mean",[15],21.70 min
same,"Average Duration of weekly symptomatic RP attacks, Median",[15],30.45 min
same,"Change from Baseline in average duration of weekly symptomatic RP attacks, Mean",[15],-7.67 min
same,"Change from Baseline in average duration of weekly symptomatic RP attacks, Median",[15],-10.33 min
same,"Percent Change from Baseline in average duration of weekly symptomatic RP attacks, Mean",[15],−32.23%
same,"Percent Change from Baseline in average duration of weekly symptomatic RP attacks, Median",[15],−34.60%
same,"Average Duration of Weekly Symptomatic RP Attacks Change from Baseline, Mean","Pooled Cilnidipine, ITT Part A",-7.67 min
same,"Average Duration of Weekly Symptomatic RP Attacks Change from Baseline, Median","Pooled Cilnidipine, ITT Part A",-10.33 min
same,"Average Duration of Weekly Symptomatic RP Attacks Percent Change from Baseline, Mean","Pooled Cilnidipine, ITT Part A",−32.23%
same,"Average Duration of Weekly Symptomatic RP Attacks Percent Change from Baseline, Median","Pooled Cilnidipine, ITT Part A",−34.60%
same,"Average Duration of Weekly RP Attacks (All Attacks), Change from Baseline, Mean",[16],-3.55 min
same,"Average Duration of Weekly RP Attacks (All Attacks), Change from Baseline, Median",[16],-7.63 min
same,"Average Duration of Weekly RP Attacks (All Attacks), Percent Change from Baseline, Mean",[16],−23.71%
same,"Average Duration of Weekly RP Attacks (All Attacks), Percent Change from Baseline, Median",[16],−21.20%
same,"Average Duration of Weekly RP Attacks (All Attacks), Mean",[17],21.66 min
same,"Average Duration of Weekly RP Attacks (All Attacks), Median",[17],30.45 min
same,"Average Duration of weekly symptomatic RP attacks, Mean",[18],21.70 min
same,"Average Duration of weekly symptomatic RP attacks, Median",[18],30.45 min
same,"Change from Baseline in average duration of weekly symptomatic RP attacks, Mean",[18],-7.67 min
same,"Change from Baseline in average duration of weekly symptomatic RP attacks, Median",[18],-10.33 min
same,"Percent Change from Baseline in average duration of weekly symptomatic RP attacks, Mean",[18],−32.23%
same,"Percent Change from Baseline in average duration of weekly symptomatic RP attacks, Median",[18],−34.60%
same,"Average Duration of Weekly RP Attacks (All Attacks), Mean",[19],21.66 min
same,"Average Duration of Weekly RP Attacks (All Attacks), Median",[19],30.45 min
same,"Average duration of weekly RP attacks, Change from Baseline, Median",[20],-7.63 min
same,"Average duration of weekly RP attacks, Percent Change from Baseline, Mean",[20],−23.71%
